In patent publication US10124004B2, “Pyrido[3,4-d]pyrimidine derivative and pharmaceutically acceptable salt thereof” (Teijin Pharma Limited, priority 2015, dated 2018):

How the values were obtained:
[1] = target: T1, CDK4/cyclin D3 (Homo sapiens, UniProt P11802); test: Human CDK4/cyclin D3 inhibitory activity (QS S Assist CDK4/Cyclin D3_FP Kit, IMAP fluorescence polarization); type: biochemical; settings: Human CDK4/cyclin D3 inhibitory activity; read-out: CDK4 Activity symbol
T1 construct: purchased Carna Biosciences, Inc. QS S Assist CDK4/Cyclin D3_FP Kit
In short: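 IMAP fluorescence polarization kit: CDK4/cyclin D3 at 12.5-25 ng/well with kit ATP/substrate/metal mix in 20 mM HEPES pH 7.4, 0.01% Tween20, 2 mM DTT, 45 min at room temperature. FP read at 485/535 nm after 30 min binding; IC50 from dose-response fit of percent inhibition versus enzyme and no-enzyme controls.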

[2] = target: T2, CDK2/cyclin A2 (Homo sapiens, UniProt P24941); test: Human CDK2/cyclin A2 inhibitory activity (QS S Assist CDK2/Cyclin A2_FP Kit, IMAP fluorescence polarization); type: biochemical; settings: Human CDK2/cyclin A2 inhibitory activity; read-out: CDK2 Activity symbol
T2 construct: purchased Carna Biosciences, Inc. QS S Assist CDK2/Cyclin A2_FP Kit
In short: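 Kinase activity read as fluorescence polarization (485/535 nm) after phosphorylated fluorescent substrate binds IMAP reagent (30 min, RT, dark). Enzyme (2.5 ng/well) reacted 60 min at RT with ATP/substrate/metal in HEPES pH 7.4 buffer with Tween 20 and DTT; no-enzyme wells define 0% activity; IC50 by curve fit.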

T1 sequence (P11802 whole entry): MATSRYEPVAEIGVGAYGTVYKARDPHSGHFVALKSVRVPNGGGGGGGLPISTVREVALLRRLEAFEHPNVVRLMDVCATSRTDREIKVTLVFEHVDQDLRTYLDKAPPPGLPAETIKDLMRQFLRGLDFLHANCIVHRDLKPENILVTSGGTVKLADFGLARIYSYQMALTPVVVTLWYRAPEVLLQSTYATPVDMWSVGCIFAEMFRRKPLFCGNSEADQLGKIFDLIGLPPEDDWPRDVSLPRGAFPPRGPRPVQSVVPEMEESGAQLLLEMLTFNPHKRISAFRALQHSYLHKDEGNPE
T1 sequence (P30281 whole entry partner): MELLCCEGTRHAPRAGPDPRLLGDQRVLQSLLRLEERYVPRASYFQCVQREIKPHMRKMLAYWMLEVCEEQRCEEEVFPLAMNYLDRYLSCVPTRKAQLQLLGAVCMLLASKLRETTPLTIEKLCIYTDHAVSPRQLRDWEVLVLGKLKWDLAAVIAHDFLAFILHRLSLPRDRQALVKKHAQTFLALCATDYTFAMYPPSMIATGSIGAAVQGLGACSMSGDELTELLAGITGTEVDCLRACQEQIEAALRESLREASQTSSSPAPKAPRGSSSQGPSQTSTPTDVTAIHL

Structure (SMILES) | IC50 [1] [nM] | IC50 [2] [nM]
CC(C)Nc1nc([C@@H](C)O)cc2cnc(Nc3ccc(CN4CCOCC4)cn3)nc12 [Compound 233] | < 10 | ≥ 100
CC(C)Nc1nc([C@@H](C)O)cc2cnc(Nc3ccc(CN4CCNC(=O)C4)cn3)nc12 [Compound 234] | < 10 | ≥ 100
COCC(C)(C)Nc1nc([C@@H](C)O)cc2cnc(Nc3ccc(NCCO)nn3)nc12 [Compound 235] | 10 to 100 | ≥ 100
CC(C)Nc1nc(C(F)F)cc2cnc(Nc3ccc(CN4CCC(C(=O)NS(C)(=O)=O)CC4)cn3)nc12 [Compound 236] | < 10 | 10 to 100
CO[C@H](C)c1cc2cnc(Nc3ccc(CN4CCNCC4=O)cn3)nc2c(NC(C)C)n1 [Compound 237] | 10 to 100 | ≥ 100
CC(C)Nc1nc([C@@H](C)O)c(Cl)c2cnc(Nc3ccc(CN4CCNCC4)cn3)nc12 [Compound 238] | < 10 | ≥ 100
CCCN1CCN(Cc2ccc(Nc3ncc4cc([C@@H](C)OC)nc(NC(C)C)c4n3)nc2)CC1 [Compound 239] | < 10 | ≥ 100
CCN1CCN(Cc2ccc(Nc3ncc4cc([C@@H](C)OC)nc(NC(C)C)c4n3)nc2)CC1 [Compound 240] | < 10 | ≥ 100
COCCNCc1ccc(Nc2ncc3cc([C@@H](C)O)nc(NC(C)C)c3n2)nc1 [Compound 241] | < 10 | ≥ 100
COCCNCc1ccc(Nc2ncc3cc([C@@H](C)O)nc(NC(C)(C)COC)c3n2)nc1 [Compound 242] | 10 to 100 | ≥ 100
CCCN1CCN(Cc2ccc(Nc3ncc4cc([C@@H](C)O)nc(NC(C)(C)COC)c4n3)nc2)CC1 [Compound 243] | < 10 | ≥ 100
CCN1CCN(Cc2ccc(Nc3ncc4cc([C@@H](C)O)nc(NC(C)(C)COC)c4n3)nc2)CC1 [Compound 244] | < 10 | ≥ 100
CC(C)Nc1nc([C@@H](C)O)cc2cnc(Nc3ccc(OCCN(C)C)cn3)nc12 [Compound 245] | < 10 | ≥ 100
CO[C@H](C)c1cc2cnc(Nc3ccc(CN4CCNCC4)nn3)nc2c(NC(C)C)n1 [Compound 246] | < 10 | ≥ 100
CC(C)Nc1nc([C@@H](C)O)c(Cl)c2cnc(Nc3ccc(N4CCNCC4=O)cn3)nc12 [Compound 247] | < 10 | ≥ 100
COCC(C)(C)Nc1nc([C@@H](C)O)cc2cnc(Nc3ccc(CN4CCNCC4=O)cn3)nc12 [Compound 248] | 10 to 100 | ≥ 100
CO[C@H](C)c1cc2cnc(Nc3ccc(N4CCN(CCO)CC4)nn3)nc2c(NC(C)C)n1 [Compound 249] | < 10 | ≥ 100
C[C@@H](O)c1cc2cnc(Nc3ccc(N4CCNCC4)nn3)nc2c(NC2CCOCC2)n1 [Compound 250] | < 10 | ≥ 100
C[C@@H](O)c1cc2cnc(Nc3ccc(N4CCNCC4)nn3)nc2c(N[C@H]2CCOC2)n1 [Compound 251] | < 10 | ≥ 100
C[C@@H](O)c1cc2cnc(Nc3ccc(N4CCNCC4)nn3)nc2c(N[C@@H]2CCOC2)n1 [Compound 252] | < 10 | ≥ 100

Structure (SMILES) | IC50 [1] [nM] | IC50 [2] [nM]
C[C@@H](O)c1cc2cnc(Nc3ccc(N4CCNCC4)nn3)nc2c(N[C@H]2CCCOC2)n1 [Compound 253] | < 10 | ≥ 100
C[C@@H](O)c1cc2cnc(Nc3ccc(N4CCNCC4)nn3)nc2c(N[C@@H]2CCCOC2)n1 [Compound 254] | < 10 | ≥ 100
C[C@@H](O)c1cc2cnc(Nc3ccc(CN4CCNCC4)cn3)nc2c(NC2CCOCC2)n1 [Compound 255] | < 10 | ≥ 100
C[C@@H](O)c1cc2cnc(Nc3ccc(CN4CCNCC4)cn3)nc2c(N[C@H]2CCCOC2)n1 [Compound 256] | < 10 | ≥ 100
C[C@@H](O)c1cc2cnc(Nc3ccc(CN4CCNCC4)cn3)nc2c(N[C@@H]2CCCOC2)n1 [Compound 257] | < 10 | ≥ 100
C[C@@H](O)c1cc2cnc(Nc3ccc(CN4CCNCC4)cn3)nc2c(N[C@H]2CCOC2)n1 [Compound 258] | < 10 | ≥ 100
C[C@@H](O)c1cc2cnc(Nc3ccc(CN4CCNCC4)cn3)nc2c(N[C@@H]2CCOC2)n1 [Compound 259] | < 10 | ≥ 100
CC(C)Nc1nc([C@@H](C)O)cc2cnc(Nc3ccc(N4CCC(O)CC4)nn3)nc12 [Compound 260] | < 10 | ≥ 100
CC(C)Nc1nc([C@@H](C)O)cc2cnc(Nc3ccc(N4CCNCC4)nn3)nc12 [Compound 261, (R)-1-(8-(isopropylamino)-2-((6-(piperazin-1-yl)pyridazin-3-yl)amino)pyrido[3,4-d]pyrimidin-6-yl)ethanol] | < 10 | ≥ 100
CC(C)Nc1nc([C@@H](C)O)cc2cnc(Nc3ccc(CN4CCNCC4=O)cn3)nc12 [Compound 262] | 10 to 100 | ≥ 100
CNCC(C)(C)c1ccc(Nc2ncc3cc([C@@H](C)O)nc(NC(C)C)c3n2)nc1 [Compound 263] | < 10 | ≥ 100
CNCC(C)(C)c1ccc(Nc2ncc3cc([C@@H](C)O)nc(NC(C)(C)COC)c3n2)nc1 [Compound 264] | < 10 | ≥ 100
COCC(C)(C)Nc1nc([C@@H](C)O)cc2cnc(Nc3ccc(C(C)N4CCNCC4)cn3)nc12 (some centres unmarked) [Compound 265] | < 10 | ≥ 100
CO[C@H](C)c1cc2cnc(Nc3ccc(C(C)N4CCNCC4)cn3)nc2c(NC(C)C)n1 (some centres unmarked) [Compound 266] | < 10 | ≥ 100
CO[C@H](C)c1cc2cnc(Nc3ccc(N4CC[C@H](O)CC4=O)cn3)nc2c(NC(C)C)n1 [Compound 267] | < 10 | ≥ 100
COCC(C)(C)Nc1nc([C@@H](C)O)cc2cnc(Nc3ccc(N4CC[C@H](O)CC4=O)cn3)nc12 [Compound 268] | 10 to 100 | ≥ 100
CC(C)Oc1nc(C(C)O)cc2cnc(Nc3ccc(N4CCNCC4)nn3)nc12 (centres unmarked) [Compound 269] | < 10 | ≥ 100
CO[C@H](C)c1cc2cnc(Nc3ccc(CN4CC[C@@H](O)C4)cn3)nc2c(NC(C)C)n1 [Compound 270] | < 10 | ≥ 100
CO[C@H](C)c1cc2cnc(Nc3ccc(CN4CC[C@@H](F)C4)cn3)nc2c(NC(C)C)n1 [Compound 271] | < 10 | ≥ 100
CO[C@H](C)c1cc2cnc(Nc3ccc(CN4CC5CC(C4)O5)cn3)nc2c(NC(C)C)n1 [Compound 272] | < 10 | ≥ 100

Structure (SMILES) | IC50 [1] [nM] | IC50 [2] [nM]
CO[C@H](C)c1cc2cnc(Nc3ccc(CN4CCCOCC4)cn3)nc2c(NC(C)C)n1 [Compound 273] | < 10 | ≥ 100
COC1CCN(Cc2ccc(Nc3ncc4cc([C@@H](C)OC)nc(NC(C)C)c4n3)nc2)CC1 [Compound 274] | < 10 | ≥ 100
CO[C@H](C)c1cc2cnc(Nc3ccc(CN4CCn5ccnc5C4)cn3)nc2c(NC(C)C)n1 [Compound 275] | 10 to 100 | ≥ 100
CO[C@H](C)c1cc2cnc(Nc3ccc(CN4CCN(CCF)CC4)cn3)nc2c(NC(C)C)n1 [Compound 276] | < 10 | ≥ 100
CO[C@H](C)c1cc2cnc(Nc3ccc(CN4CCc5nc(C)[nH]c5C4)cn3)nc2c(NC(C)C)n1 [Compound 277] | ≥ 100 | ≥ 100
CNC(=O)C1CCN(Cc2ccc(Nc3ncc4cc([C@@H](C)OC)nc(NC(C)C)c4n3)nc2)CC1 [Compound 278] | < 10 | ≥ 100
CO[C@H](C)c1cc2cnc(Nc3ccc(CN4CCOCC4(C)C)cn3)nc2c(NC(C)C)n1 [Compound 279] | 10 to 100 | ≥ 100
CO[C@H](C)c1cc2cnc(Nc3ccc(CN4[C@@H](C)COC[C@@H]4C)cn3)nc2c(NC(C)C)n1 [Compound 280] | ≥ 100 | ≥ 100
CO[C@H](C)c1cc2cnc(Nc3ccc(CN4CCN(CC(F)F)CC4)cn3)nc2c(NC(C)C)n1 [Compound 281] | 10 to 100 | ≥ 100
CO[C@H](C)c1cc2cnc(Nc3ccc(OCCN4CCOCC4)cn3)nc2c(NC(C)C)n1 [Compound 282] | < 10 | ≥ 100
CO[C@H](C)c1cc2cnc(Nc3ccc(OCCCN(C)C)cn3)nc2c(NC(C)C)n1 [Compound 283] | < 10 | ≥ 100
C[C@@H](O)c1cc2cnc(Nc3ccc(N4CCNCC4)nn3)nc2c(NCC2CCOC2)n1 (some centres unmarked) [Compound 284] | < 10 | ≥ 100
CO[C@H](C)c1cc2cnc(Nc3ccc(N4CCNCC4)nn3)nc2c(NC2CCOCC2)n1 [Compound 285] | < 10 | ≥ 100
CO[C@H](C)c1cc2cnc(Nc3ccc(N4CCCC(O)C4)nn3)nc2c(NC(C)C)n1 (some centres unmarked) [Compound 286] | < 10 | ≥ 100
CO[C@H](C)c1cc2cnc(Nc3ccc(OCCN4CCCC4)cn3)nc2c(NC(C)C)n1 [Compound 287] | < 10 | ≥ 100
CNCCOc1ccc(Nc2ncc3cc([C@@H](C)OC)nc(NC(C)C)c3n2)nc1 [Compound 288] | < 10 | ≥ 100
CO[C@H](C)c1cc2cnc(Nc3ccc(OC4CCNCC4)cn3)nc2c(NC(C)C)n1 [Compound 289] | < 10 | ≥ 100
CO[C@H](C)c1cc2cnc(Nc3ccc(OC4CCNC4)cn3)nc2c(NC(C)C)n1 (some centres unmarked) [Compound 290] | < 10 | ≥ 100
